Measured values as given in patent US20260138969A1 (Korea Research Institute of Chemical Technology, priority 2023, published 2026).

Assays:
[1] = biological target: T1, recombinant human ASK1 protein (Homo sapiens, UniProt Q99683); experiment: Evaluation of ASK1 inhibition activity ([gamma-33P]-ATP, scintillation counting); format: biochemical; conditions: for remaining activity at 0.5 µM: activity of group without compound set at 100%, read-out: Remaining kinase activity (%) at 0.5 uM
T1 sequence (Q99683 1-1374): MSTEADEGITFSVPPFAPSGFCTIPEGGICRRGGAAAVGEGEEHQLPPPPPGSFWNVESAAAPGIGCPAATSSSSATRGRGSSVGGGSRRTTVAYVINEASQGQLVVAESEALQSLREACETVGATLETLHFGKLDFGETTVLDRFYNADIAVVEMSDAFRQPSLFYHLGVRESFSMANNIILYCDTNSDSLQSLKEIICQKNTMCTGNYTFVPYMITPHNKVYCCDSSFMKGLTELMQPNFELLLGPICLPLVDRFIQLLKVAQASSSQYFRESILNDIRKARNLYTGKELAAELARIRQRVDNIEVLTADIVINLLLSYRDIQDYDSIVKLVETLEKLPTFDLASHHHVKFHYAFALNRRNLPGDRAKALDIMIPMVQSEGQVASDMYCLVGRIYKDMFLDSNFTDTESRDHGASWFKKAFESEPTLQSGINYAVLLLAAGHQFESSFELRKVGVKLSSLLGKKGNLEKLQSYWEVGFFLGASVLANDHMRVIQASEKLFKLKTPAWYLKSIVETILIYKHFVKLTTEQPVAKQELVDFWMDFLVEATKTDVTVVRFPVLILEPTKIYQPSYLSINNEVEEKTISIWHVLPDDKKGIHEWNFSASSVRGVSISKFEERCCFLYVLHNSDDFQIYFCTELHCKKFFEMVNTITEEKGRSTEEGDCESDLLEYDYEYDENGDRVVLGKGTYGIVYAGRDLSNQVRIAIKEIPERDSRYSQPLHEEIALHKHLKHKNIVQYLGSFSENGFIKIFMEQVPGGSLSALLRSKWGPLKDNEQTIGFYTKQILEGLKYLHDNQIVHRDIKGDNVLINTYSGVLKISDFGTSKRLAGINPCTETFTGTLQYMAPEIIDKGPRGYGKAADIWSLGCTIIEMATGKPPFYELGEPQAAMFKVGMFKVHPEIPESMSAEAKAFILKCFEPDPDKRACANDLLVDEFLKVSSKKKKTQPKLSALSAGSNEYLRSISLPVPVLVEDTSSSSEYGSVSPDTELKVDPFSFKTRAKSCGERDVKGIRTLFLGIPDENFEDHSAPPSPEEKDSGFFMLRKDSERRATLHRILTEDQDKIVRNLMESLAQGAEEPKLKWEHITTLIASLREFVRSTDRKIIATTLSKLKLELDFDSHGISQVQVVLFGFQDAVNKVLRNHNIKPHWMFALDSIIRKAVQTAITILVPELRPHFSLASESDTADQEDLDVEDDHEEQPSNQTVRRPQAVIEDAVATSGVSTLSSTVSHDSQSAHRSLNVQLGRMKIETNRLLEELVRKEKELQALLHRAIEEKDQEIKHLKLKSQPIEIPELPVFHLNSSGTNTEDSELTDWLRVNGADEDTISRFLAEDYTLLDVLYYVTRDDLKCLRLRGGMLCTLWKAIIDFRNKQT
Experimental: The recombinant human ASK1 protein was initiated by adding a mixture of Mg/ATP to the reaction solution (8 mM MOPS PH 7.0, 0.2 mM EDTA, 0.33 mg/mL myelin basic protein, 10 mM Mg Acetate and [gamma-33P]-ATP), and the reaction was terminated by adding 0.5% phosphoric acid after 40 min at room temperature.

[2] = MDR-MDCK cell membrane permeability assessment; format: in vitro ADME; conditions: dog; MDCK-MDR1 monolayer, 37° C., 2 hours
Experimental: (§1) MDCK-MDR1 cells (5×10^5 cells/mL) were incubated on a 24-transwell plate (Corning, NY, USA) for 4 days to measure permeability through a single layer of MDR-MDCK cells. The medium was replaced with a new medium every two days, and the electrical resistance between epithelial tissues (TEER) was measured using a Millicell® ERS-2 Volohmmeter (Merck KGaA, Darmstadt, Germany), and the cell membrane permeability test was performed after confirming that this value was greater than or equal to 300 Ohm.cm^2.
(§2) The apical and basolateral chambers were washed twice each in the order of Hanks' Balanced Salt Solution (HBSS) containing DPBS buffer and 10 mM Hydroxyethyl piperazine Ethane sulfonic acid (HEPES), and in the final washing step, HBSS was filled and maintained at a stable state at 37° C. for 30 minutes. After 30 minutes, the test material was instilled in each chamber and left at 37° C. for 2 hours, and the culture medium of the transferred layer was collected at 30-minute intervals, and the collected amount was supplemented with new HBSS.
(§3) The apparent permeability coefficient (Papp, cm/sec) was calculated using the following formula:
(§4) [formula] • Papp: Apparent permeability • dQ/dt: Permeability of the drug • A: Area of the filter membrane on which the cells are laid • C_0: Initial concentration of the drug
(§5) In addition, the Efflux ratio was calculated as follows: […]

MDR1 = experiment: MDR-MDCK cell membrane permeability assessment; format: in vitro ADME; conditions: dog; MDCK-MDR1 monolayer
Experimental: as §1, §2, §3, §4, §5

[3] = tested on: SOD1 G93A transgenic ALS mouse model; experiment: SOD1 G93A transgenic ALS mouse model: survival; format: in vivo; conditions: 30 mg/kg PO QD from 8 weeks of age until death; vs G2
Experimental: (§6) The test drug was administered once daily (QD) via oral administration (PO) in a solution of 5 mL/kg from 8 weeks of age until death. Body weight was measured weekly, and disease score was measured daily from 8 weeks until the death of the animal. Motor behavior tests (grip strength) and neurological score tests (modified Irwin test) were performed at 9, 11, 13, 15, 17, 19, and 21 weeks, respectively. The survival of the mice was monitored daily.
The survival of the mice was monitored daily. The survival age of mice was recorded and labeled as Kaplan Meier survival plots.

[4] = tested on: SOD1 G93A transgenic ALS mouse model; experiment: SOD1 G93A transgenic ALS mouse model: disease symptom score (ALSTDI); format: in vivo; conditions: 30 mg/kg PO QD from 8 weeks of age; vs G2
Experimental: as §6
From 8 weeks of age, the neurological scoring system developed by the ALS Therapy Development Institute (ALSTDI) method was used to evaluate disease symptoms in mice. Both hind legs were scored based on Table 14 below.

| SMILES | IC50 [1] [nM] | remaining activity at 0.5 µM [1] [%] | Papp A→B at 2 h [2] [×10⁻⁶ cm/s] | Papp B→A at 2 h [2] [×10⁻⁶ cm/s] | efflux ratio at 2 h (MDR1) | survival rate [3] | disease symptom score [4] |
| --- | --- | --- | --- | --- | --- | --- | --- |
| Cc1cc(F)c(C(=O)Nc2cccc(-n3nnc4c3CCC4)n2)cc1-n1cnc(C2CC2)c1 [Example 2, 5-(4-cyclopropyl-1H-imidazole-1-yl)-N-(6-(5,6-dihydrocyclopenta[d][1,2,3]triazole-1 (4H)-yl)pyridine-2-yl)-2-fluoro-4-methylbenzamide] | 37 | 2 | 93.2 ± 11.2 | 99.1 ± 16.8 | 1.06 |  |  |
| Cc1cc(F)c(C(=O)Nc2cccc(-n3nnc4c3CCCC4)n2)cc1-n1cnc(C2CC2)c1 [Example 3, 5-(4-cyclopropyl-1H-imidazole-1-yl)-2-fluoro-4-methyl-N-(6-(4,5,6,7-tetrahydro-1H-benzo[d][1,2,3]triazole-1-yl)pyridine-2-yl)benzamide] | 73 | 7 | 67.3 ± 12.8 | 74.8 ± 12.3 | 1.13 | tendency to improve survival rate, although it was not significant compared to group G2 | tended to have a lower disease symptom score compared to G2 during the observation period, and decreased significantly at 20 weeks |
